In patent publication US9862684B2, “Modulation of K2P channels” (The Regents of the University of California, priority 2013, dated 2018):

Legend:
TREK-1 = target: T1, TREK-1 (Mus musculus, UniProt P97438); assay: Modulation of TREK-1 by select compounds (agonist activity), Table 3; format: cell-based, Murine; conditions: 50 μM
T1 construct: expressed in transfected cells
T1 sequence (P97438 1-411 isoform P97438-2): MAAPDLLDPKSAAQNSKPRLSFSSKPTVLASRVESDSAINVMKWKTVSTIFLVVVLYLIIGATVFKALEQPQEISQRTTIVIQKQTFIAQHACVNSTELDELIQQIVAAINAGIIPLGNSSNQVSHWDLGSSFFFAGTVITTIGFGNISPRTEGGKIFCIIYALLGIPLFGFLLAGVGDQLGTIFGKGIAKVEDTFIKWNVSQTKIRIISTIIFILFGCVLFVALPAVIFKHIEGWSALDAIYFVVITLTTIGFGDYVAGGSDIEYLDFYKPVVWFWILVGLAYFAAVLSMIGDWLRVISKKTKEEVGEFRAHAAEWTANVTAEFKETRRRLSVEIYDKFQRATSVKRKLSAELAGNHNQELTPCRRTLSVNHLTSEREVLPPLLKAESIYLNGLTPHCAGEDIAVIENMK
Description: Two-electrode voltage clamp recordings were performed from defolliculated stage V-VI Xenopus oocytes 24-48 hours after injection with 0.015-6.0 ng cRNA, using microelectrodes (0.3-3.0 MΩ) filled with 3M KCl. […] Recording solutions (mM): 2K (96 NaCl, 2 KCl, 1.8 CaCl2, 2 MgCl2), 90K (90 KCl, 8 NaCl, 1.8 CaCl2, 2 MgCl2), were buffered 5 mM HEPES pH 7.4. For K2P recordings, currents we elicited by a 1 second long ramp from −150 to +50 mV from a holding potential of −80 mV (2K), or −100 to +50 mV from a holding potential of 0 mV (90K). For KCNQ2 recordings, currents were elicited by a step protocol from −120 to 60 mV, in 20 mV increments, from a holding potential of −80 mV. […] Currents were elicited by a 1 second long ramp from −150 to +50 mV from a holding potential of −80 mV.

purified TRAAK channels = target: T2, purified TRAAK channels (Homo sapiens, UniProt Q9NYG8); assay: UV crosslinking and labeling of purified TRAAK channel; format: binding; conditions: TRAAK 3 μM, 254 nm UV 30 seconds, streptavidin-HRP detection
T2 sequence (Q9NYG8 1-393): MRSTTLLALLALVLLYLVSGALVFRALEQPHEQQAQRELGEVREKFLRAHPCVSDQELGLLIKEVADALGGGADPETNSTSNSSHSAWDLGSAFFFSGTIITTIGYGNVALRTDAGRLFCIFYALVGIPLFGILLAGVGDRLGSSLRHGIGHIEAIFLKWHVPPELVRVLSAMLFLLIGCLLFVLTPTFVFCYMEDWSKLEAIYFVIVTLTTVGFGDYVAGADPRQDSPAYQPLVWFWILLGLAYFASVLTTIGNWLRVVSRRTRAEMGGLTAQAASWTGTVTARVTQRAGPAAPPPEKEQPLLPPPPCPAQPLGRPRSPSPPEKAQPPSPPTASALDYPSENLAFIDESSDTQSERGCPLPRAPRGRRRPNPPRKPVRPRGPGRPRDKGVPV
Description: FIG. 15 Crosslinking and labeling of TRAAK channel with ML67-151; crosslinking of ML67-151 to purified TRAAK channels (3 μM) following exposure to 254 nm UV light for 30 seconds; left is SDS-PAGE of purified TRAAK, top middle is streptavidin-HRP detection following addition of clickable biotin; bottom middle is Ponceau S staining
Crosslinking of ML67-151 to purified TRAAK channels (3 μM) following exposure to 254 nm UV light for 30 seconds is shown in the top middle blot of FIG. 15, including streptavidin-HRP detection following addition of clickable biotin.

C#Cc1ccc(S(=O)(=O)NC(=O)CCN2c3ccc(N=[N+]=[N-])cc3C3(CCCCC3)c3cc(N=[N+]=[N-])ccc32)cc1 [ML67-151, 1-(2-azido-10-{2-[(4-ethynylbenzene-sulfonyl)carbamoyl]ethyl}-10H-spiro[acridine-9,1′-cyclohexane]-7-yl)triaza-1,2-dien-2-ium]
% activity at 50 μM (TREK-1): About 50% activity of ML67-33 at 50 μM | crosslinking and labeling of TRAAK channel (in words) (purified TRAAK channels): capable of crosslinking and labeling TRAAK channel
